Test results: patent US11780830B2, “Triazolone derivatives or salts thereof and pharmaceutical compositions comprising the same” (YUHAN CORPORATION, priority 2018, dated 2023)
Counter-ions that a name gives are not always drawn.

Tests used:
Assay type in all cases: biochemical
[1] = target: T1, recombinant human MAO-A (monoamine oxidase-A) (Homo sapiens, UniProt P21397); assay: Activity on recombinant human MAO-A, method similar to the VAP-1 assay; settings: substrate 0.5 mM tyramine; read-out: Inhibitory Activity (IC50, nM) MAO-A
T1 construct: purchased Sigma-Aldrich
T1 sequence (P21397 1-527): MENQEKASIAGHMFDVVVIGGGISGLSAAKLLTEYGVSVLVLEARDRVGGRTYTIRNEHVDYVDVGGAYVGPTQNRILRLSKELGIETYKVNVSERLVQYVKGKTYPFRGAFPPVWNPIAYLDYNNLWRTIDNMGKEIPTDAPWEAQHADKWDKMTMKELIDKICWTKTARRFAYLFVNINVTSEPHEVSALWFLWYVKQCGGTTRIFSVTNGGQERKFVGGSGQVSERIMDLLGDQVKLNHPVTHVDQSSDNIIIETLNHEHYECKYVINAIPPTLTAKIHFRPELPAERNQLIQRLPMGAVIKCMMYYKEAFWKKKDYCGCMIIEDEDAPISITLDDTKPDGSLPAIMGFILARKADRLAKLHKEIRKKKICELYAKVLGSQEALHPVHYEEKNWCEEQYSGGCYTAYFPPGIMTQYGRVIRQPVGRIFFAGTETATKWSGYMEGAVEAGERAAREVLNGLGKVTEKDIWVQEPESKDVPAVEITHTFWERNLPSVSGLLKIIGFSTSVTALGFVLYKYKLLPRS
In short: (§1)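 Enzyme in pH 7.4 phosphate buffer; 30 min, 37° C with compound (DMSO <1%); start with 200 uM Amplex Red + 1 U/mL HRP + tyramine 0.5 mM (MAO-A) or benzylamine 1 mM (MAO-B); kinetic read ex 544/em 590, 1-2 h; % rate decrease vs DMSO control → IC50, 4-parameter fit.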

[2] = target: T2, recombinant human DAO (diamine oxidase) (Homo sapiens, UniProt P19801); assay: Activity on recombinant human DAO, method similar to the VAP-1 assay; settings: substrate 1 mM putrescine; read-out: Inhibitory Activity (IC50, nM) DAO
T2 construct: purchased R&D systems
T2 sequence (P19801 20-751): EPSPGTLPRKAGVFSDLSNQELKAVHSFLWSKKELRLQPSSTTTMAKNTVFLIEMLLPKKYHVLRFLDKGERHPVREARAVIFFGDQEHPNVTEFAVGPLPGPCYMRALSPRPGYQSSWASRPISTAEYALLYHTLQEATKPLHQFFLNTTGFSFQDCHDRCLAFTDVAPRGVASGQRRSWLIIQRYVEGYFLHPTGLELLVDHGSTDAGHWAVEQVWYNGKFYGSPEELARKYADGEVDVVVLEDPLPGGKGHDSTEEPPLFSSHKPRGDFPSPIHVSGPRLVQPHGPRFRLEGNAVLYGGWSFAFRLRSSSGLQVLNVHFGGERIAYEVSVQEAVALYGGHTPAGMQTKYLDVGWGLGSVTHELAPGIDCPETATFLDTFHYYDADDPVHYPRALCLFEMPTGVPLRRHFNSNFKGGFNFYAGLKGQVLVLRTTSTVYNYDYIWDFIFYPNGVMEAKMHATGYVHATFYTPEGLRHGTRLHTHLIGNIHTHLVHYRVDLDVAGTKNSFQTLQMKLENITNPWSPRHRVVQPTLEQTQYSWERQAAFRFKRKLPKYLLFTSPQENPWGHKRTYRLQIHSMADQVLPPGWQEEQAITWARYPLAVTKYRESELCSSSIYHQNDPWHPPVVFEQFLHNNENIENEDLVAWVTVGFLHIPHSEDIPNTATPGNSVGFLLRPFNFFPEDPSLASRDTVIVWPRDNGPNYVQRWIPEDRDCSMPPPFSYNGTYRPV
In short: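 Inhibition of recombinant human diamine oxidase (DAO, R&D systems) was assessed by the same approach as the VAP-1 assay, using 1 mM putrescine as substrate. Hydrogen peroxide formed was detected through an HRP-coupled Amplex Red reaction yielding fluorescent resorufin, read at 544 nm excitation and 590 nm emission. IC50 values came from four-parameter logistic fitting in GraphPad Prism.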

recombinant human VAP-1 = target: T3, recombinant human VAP-1 (Homo sapiens, UniProt Q16853); assay: Activity on recombinant human VAP-1, HRP-coupled Amplex Red hydrogen peroxide assay; settings: substrate 1 mM benzylamine; compound incubated with enzyme at 37° C. for 30 minutes; pH 7.4; read-out: Inhibitory Activity (IC50, nM) human VAP-1
T3 construct: purchased R&D systems
T3 sequence (Q16853 1-763): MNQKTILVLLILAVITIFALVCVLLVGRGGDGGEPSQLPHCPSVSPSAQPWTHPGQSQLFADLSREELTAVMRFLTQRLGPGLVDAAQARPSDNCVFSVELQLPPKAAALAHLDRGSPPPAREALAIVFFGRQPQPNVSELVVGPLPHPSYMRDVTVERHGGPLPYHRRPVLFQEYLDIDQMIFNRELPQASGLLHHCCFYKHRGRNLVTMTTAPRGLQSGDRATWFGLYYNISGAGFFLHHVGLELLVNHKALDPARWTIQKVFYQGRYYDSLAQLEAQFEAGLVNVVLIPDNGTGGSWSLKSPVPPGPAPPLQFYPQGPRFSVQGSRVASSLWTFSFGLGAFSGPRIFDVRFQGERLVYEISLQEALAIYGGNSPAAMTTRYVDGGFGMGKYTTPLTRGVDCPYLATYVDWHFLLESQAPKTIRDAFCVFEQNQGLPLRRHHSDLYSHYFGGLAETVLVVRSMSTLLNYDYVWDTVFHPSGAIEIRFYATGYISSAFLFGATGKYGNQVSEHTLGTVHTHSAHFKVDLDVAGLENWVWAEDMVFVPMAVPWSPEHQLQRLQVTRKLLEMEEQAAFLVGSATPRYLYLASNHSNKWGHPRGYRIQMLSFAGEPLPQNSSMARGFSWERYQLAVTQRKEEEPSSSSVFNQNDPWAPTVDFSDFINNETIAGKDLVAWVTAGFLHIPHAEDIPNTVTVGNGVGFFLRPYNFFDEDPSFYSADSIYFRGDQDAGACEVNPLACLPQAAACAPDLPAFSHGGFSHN
In short: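 Enzyme in 50 mM sodium phosphate (pH 7.4) is exposed to test compound for 30 min at 37 °C. Benzylamine (1 mM) with HRP and Amplex Red then starts the reaction, and the fluorescence rate, relative to a DMSO-only control, gives IC50.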

[3] = target: T4, recombinant human MAO-B (monoamine oxidase-B) (Homo sapiens, UniProt P27338); assay: Activity on recombinant human MAO-B, method similar to the VAP-1 assay; settings: substrate 1 mM benzylamine; read-out: Inhibitory Activity (IC50, nM) MAO-B
T4 construct: purchased Sigma-Aldrich
T4 sequence (P27338 1-520): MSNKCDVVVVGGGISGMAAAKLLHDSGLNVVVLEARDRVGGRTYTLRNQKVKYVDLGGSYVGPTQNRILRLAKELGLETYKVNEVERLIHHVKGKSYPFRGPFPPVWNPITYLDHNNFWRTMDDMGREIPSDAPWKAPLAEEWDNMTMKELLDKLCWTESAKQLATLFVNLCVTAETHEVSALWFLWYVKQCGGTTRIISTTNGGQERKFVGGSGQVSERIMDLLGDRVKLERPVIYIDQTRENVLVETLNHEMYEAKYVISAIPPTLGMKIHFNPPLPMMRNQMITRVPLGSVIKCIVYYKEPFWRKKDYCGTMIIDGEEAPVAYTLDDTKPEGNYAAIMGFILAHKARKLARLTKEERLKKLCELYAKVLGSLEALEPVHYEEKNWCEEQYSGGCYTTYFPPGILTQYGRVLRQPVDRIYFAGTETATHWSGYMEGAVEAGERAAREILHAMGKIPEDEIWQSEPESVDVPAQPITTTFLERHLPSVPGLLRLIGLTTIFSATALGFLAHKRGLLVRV
In short: as §1

IC50 [1]	IC50 [2]	IC50 (recombinant human VAP-1)	IC50 [3]	SMILES
> 100000 nM	1200 nM	4.3 nM	> 100000 nM	CN1CCC(n2cc(-c3ccc(Cn4cnn(C/C(=C/F)CN)c4=O)s3)cn2)CC1 [Example 159, 2-[(2E)-2-(aminomethyl)-3-fluoroprop-2-en-1-yl]-4-({5-[1-(1-methylpiperidin-4-yl)-1H-pyrazol-4-yl]thiophen-2-yl}methyl)-2,4-dihydro-3H-1,2,4-triazol-3-one]
> 100000 nM	860 nM	1.8 nM	1200 nM	NC/C(=C\F)Cn1ncn(Cc2ccc(/C=C/c3ccc(C(F)(F)F)cc3)s2)c1=O [Example 119, 2-[(E)-2-(aminomethyl)-3-fluoro-allyl]-4-[[5-[(E)-2-[4-(trifluoromethyl)phenyl]vinyl]-2-thienyl]methyl]-1,2,4-triazol-3-one hydrochloride]
> 100000 nM	340 nM	2 nM	2700 nM	NC/C(=C\F)Cn1ncn(Cc2ccc(-c3ccc(S(=O)(=O)NC4CC4)cc3)s2)c1=O [Example 197, 4-[5-({1-[(2E)-2-(aminomethyl)-3-fluoroprop-2-en-1-yl]-5-oxo-1,5-dihydro-4H-1,2,4-triazol-4-yl}methyl)thiophen-2-yl]-N-cyclopropylbenzenesulfonamide]
> 100000 nM	1800 nM	4.6 nM	1100 nM	COCCOc1ccc(-c2ccc(Cn3cnn(C/C(=C/F)CN)c3=O)s2)cc1 [Example 19, 2-[(2E)-2-(aminomethyl)-3-fluoroprop-2-en-1-yl]-4-(5-[4-(2-methoxyethoxy)phenyl]thiophen-2-ylmethyl)-2,4-dihydro-3H-1,2,4-triazol-3-one hydrochloride]
> 100000 nM	780 nM	3.9 nM	> 10000 nM	CN1CC=C(c2ccc(Cn3cnn(C/C(=C/F)CN)c3=O)s2)CC1 [Example 58, 2-[(2E)-2-(aminomethyl)-3-fluoroprop-2-en-1-yl]-4-[5-(1-methyl-1,2,3,6-tetrahydropyridin-4-yl)thiophen-2-yl]methyl-2,4-dihydro-3H-1,2,4-triazol-3-one hydrochloride]
> 100000 nM	470 nM	1.1 nM	18000 nM	NC/C(=C\F)Cn1ncn(Cc2ccc(-c3ccc(C(=O)N4CCOCC4)cc3)s2)c1=O [Example 27, 2-[(2E)-2-(aminomethyl)-3-fluoroprop-2-en-1-yl]-4-(5-[4-(morpholin-4-ylcarbonyl)phenyl]thiophen-2-ylmethyl)-2,4-dihydro-3H-1,2,4-triazol-3-one hydrochloride]
57400 nM	1500 nM	0.5 nM	440 nM	Cn1cncc1C#Cc1ccc(Cn2cnn(C/C(=C/F)CN)c2=O)s1 [Example 130, 2-[(2E)-2-(aminomethyl)-3-fluoroprop-2-en-1-yl]-4-(5-[(1-methyl-1H-imidazol-5-yl)ethynyl]thiophen-2-ylmethyl)-2,4-dihydro-3H-1,2,4-triazol-3-one hydrochloride]
> 100000 nM	110 nM	4.1 nM	> 10000 nM	CC(C)(C)NS(=O)(=O)c1cncc(-c2ccc(Cn3cnn(C/C(=C/F)CN)c3=O)s2)c1 [Example 43, 5-[5-(1-[(2E)-2-(aminomethyl)-3-fluoroprop-2-en-1-yl]-5-oxo-1,5-dihydro-4H-1,2,4-triazol-4-ylmethyl)thiophen-2-yl]-N-tert-butylpyridin-3-sulfonamide hydrochloride]
67000 nM	1200 nM	0.9 nM	380 nM	NC/C(=C\F)Cn1ncn(Cc2ccc(-c3ccc4[nH]ncc4c3)s2)c1=O [Example 63, 2-[(2E)-2-(aminomethyl)-3-fluoroprop-2-en-1-yl]-4-[5-(1H-indazol-5-yl)thiophen-2-yl]methyl-2,4-dihydro-3H-1,2,4-triazol-3-one hydrochloride]
20000 nM	790 nM	1.5 nM	640 nM	NC/C(=C\F)Cn1ncn(Cc2ccc(C#Cc3ccc4c(n3)OCCN4)s2)c1=O [Example 136, 2-[(E)-2-(aminomethyl)-3-fluoro-allyl]-4-[[5-[2-(2,3-dihydro-1H-pyrido[2,3-b][1,4]oxazin-6-yl)ethynyl]-2-thienyl]methyl]-1,2,4-triazol-3-one hydrochloride]
> 100000 nM	1100 nM	2.2 nM	51 nM	NC/C(=C\F)Cn1ncn(Cc2ccc(-c3ccncc3)s2)c1=O [Example 160, 2-[(2E)-2-(aminomethyl)-3-fluoroprop-2-en-1-yl]-4-{[5-(pyridin-4-yl)thiophen-2-yl]methyl}-2,4-dihydro-3H-1,2,4-triazol-3-one]
143000 nM	110 nM	0.3 nM	23 nM	NC/C(=C\F)Cn1ncn(Cc2ccc(-c3cccc4cnccc34)s2)c1=O [Example 114, 2-[(2E)-2-(aminomethyl)-3-fluoroprop-2-en-1-yl]-4-[5-(isoquinolin-5-yl)thiophen-2-yl]methyl-2,4-dihydro-3H-1,2,4-triazol-3-one hydrochloride]
